Source: paper PMC4642645, “Oxacillin sensitization of methicillin-resistant Staphylococcus aureus and methicillin-resistant Staphylococcus pseudintermedius by antisense peptide nucleic acids in vitro” (BMC Microbiology, 2015)

Legend:
MRSP isolates = conditions: cited from earlier work
Description: In the MRSP strain HH-1, PNAs were effective at much lower concentrations compared to NCTC 13142. This is presumably due to differences in cell wall structures, as passage across the cell wall is considered to be the main limiting factor for PNA efficacy. Another indication of cell wall differences is that scrambled PNAs affected cell viability of HH-1 without affecting transcript levels of mecA or ftsZ (i.e. non-specific toxic effect).

HH-1 [1] = assay: Growth inhibition assay (OD550 growth curves); assay type: cell-based, Staphylococcus pseudintermedius (MRSP); conditions: HH-1, MHB with 6 μg/ml oxacillin, PNA 0–7.5 μM, 35 °C, 6 h, OD550, n = 3
Protocol: (§1) Anti-ftsZ PNAs were tested for effects on growth. Overnight MHB cultures were adjusted to 5 × 10^5 CFU/ml per well of a 96 well plate in MHB supplemented with 6 μg/ml oxacillin as described above. Anti-ftsZ PNA was added to final concentrations of 0, 1, 2.5, 5, 7.5 μM and incubated in a microplate reader (Spectramax 340PC, Molecular Devices) at 35 °C for 6 h. The optical density of the cultures was monitored at 550 nm with readings every 5 min after shaking for 5 s.

HH-1 [2] = assay: Light microscopy of Gram stained cells (cell morphology); assay type: cell-based, Staphylococcus pseudintermedius (MRSP); conditions: HH-1, 2.5 μM PNA, 6 h at 35 °C, 1000 × magnification
Protocol: (§2) Bacterial cultures were treated with anti-ftsZ PNA Z46 in broth as described in the viable count assay. After 6 h at 35 °C, cultures were pelleted, washed once in PBS, and re-suspended in 1/10 of original volume of the culture in PBS. Ten microliter aliquots were heat-fixed, Gram stained, and viewed under a light microscope (Olympus BX60) at 1000 × magnification. Images were captured using the Image-Pro Plus 5.0 (MediaCybernetics), and counting of purple and pink cells were carried out using ImageJ 1.44o (National Institute of Health, USA).

ftsZ mRNA [3] = assay: ftsZ mRNA level by RT-qPCR; assay type: cell-based, Staphylococcus pseudintermedius (MRSP) HH-1; conditions: HH-1, 2.5 μM PNA, no oxacillin, compared to untreated or scrZ-treated cells, n = 3
Protocol: (§3) Growth of cultures in a 96 well plate was monitored by reading the optical density at 550 nm every 5 min, after shaking for 5 s in a microplate reader (Spectramax 340PC, […]). Cultures were harvested when the untreated control culture increased in OD550 ≈ 0.1. Cultures with the same PNA treatment but in different wells across the 96 well plate were pooled for total RNA extraction and DNase I treatment (Ribopure™ Bacteria kit, Life Technologies). RNA was checked for gDNA contamination by qPCR using gyrA primers (Additional file 1: Table S1) and SsoFast™ EvaGreen® Supermix (Bio-Rad) before cDNA synthesis using 50 ng RNA and iScript™ Reverse Transcription Supermix (Bio-Rad). Samples of cDNA were diluted 10-fold and 4 μl used in each qPCR reaction. […]
(§4) Primer pairs for qPCR were designed by Primer3 with a Tm of 60 °C and product sizes of 100–200 bp (Additional file 1: Table S1). […] Primer efficiencies were determined using 10-fold serial dilutions of cDNA (10 pg-1 μg). […]
(§5) Total RNA and cDNA were prepared as described above. Raw Cq values were analysed in qbase + (Biogazelle, Belgium) with user-defined primer efficiencies (Additional file 1: Table S1) and expression stabilities (M value) of each candidate reference gene fabD, gyrA, proC, pta, pyk, rho, sodA, and tpiA were calculated as the average pairwise variation for each gene with all other tested genes. […]

NCTC 13142 [4] = assay: Oxacillin sensitization viable count assay (CFU on oxacillin plates); assay type: cell-based, Staphylococcus aureus (MRSA); conditions: 6 h, plated on 16 μg/ml oxacillin, n = 3
Protocol: (§6) The viable count assay is more sensitive than the broth assay and was used to assess the effects of PNAs that performed well in the initial screen described above. In the viable count assay, 5 × 10^5 CFU/ml per well of culture was treated either with 2.5, 5 and 7.5 μM of PNA for NCTC 13142, or 1, 2.5 and 5 μM of PNA for HH-1 in MHB at 35 °C for 6 h. […] Agar plates were incubated at 35 °C for 24 h, and dilutions resulting in 30–300 colonies per plate were used to determine the viable count. Experimental repeats were carried out on separate days, and reductions in CFU of treated cultures were normalized to CFU of the untreated control culture on the day. Statistical analysis of CFU reductions was carried out with the paired Student’s t-Test in Microsoft Excel.

HH-1 [5] = assay: as above; assay type: cell-based, Staphylococcus pseudintermedius (MRSP)
Protocol: as §6

NCTC 13142 [6] = assay: Light microscopy of Gram stained cells (cell morphology); assay type: cell-based, Staphylococcus aureus (MRSA); conditions: NCTC 13142, 7.5 μM PNA, 6 h at 35 °C, 1000 × magnification
Protocol: as §2

NCTC 13142 [7] = assay: Growth inhibition assay (OD550 growth curves); assay type: cell-based, Staphylococcus aureus (MRSA); conditions: NCTC 13142, MHB with 6 μg/ml oxacillin, PNA 0–7.5 μM, 35 °C, 6 h, OD550, n = 3
Protocol: as §1

ftsZ mRNA [8] = assay: ftsZ mRNA level by RT-qPCR; assay type: cell-based, Staphylococcus aureus (MRSA) NCTC 13142; conditions: NCTC 13142, 7.5 μM PNA, no oxacillin, compared to untreated or scrZ-treated cells, n = 3
Protocol: as §3, §4, §5

Substance | MIC against MRSP isolates (MRSP isolates) [µM] | Concentration that inhibited growth (HH-1 [1]) [µM] | Cell morphology after Gram stain (HH-1 [2]) | ftsZ mRNA levels, result in words (ftsZ mRNA [3]) | CFU reduction of NCTC 13142 (NCTC 13142 [4]; 7.5 μM PNA, ratio to untreated control, mean) [%] | Sensitization to oxacillin (CFU reduction), result in words (NCTC 13142 [4]; NCTC 13142, PNA 2.5, 5, 7.5 μM (Z46: 7.5 μM)) | MRSP cells killed by oxacillin (HH-1 [5]; 2.5 μM PNA, 6 h at 35 °C, plated on MH agar with 16 μg/ml oxacillin, relative to untreated control) [%] | Sensitization to oxacillin (CFU reduction), result in words (HH-1 [5]; HH-1, A73 and scrA 1, 2.5, 5 μM, Z46 0.5, 1, 2.5 μM, 6 h, plated on 16 μg/ml oxacillin, n = 3) | Cell morphology after Gram stain (NCTC 13142 [6]) | Concentration that inhibited growth (NCTC 13142 [7]) [µM] | ftsZ mRNA levels, result in words (ftsZ mRNA [8])
KFFKFFKFFK [(KFF)3K peptide, cell-penetrating peptide (CPP) used as PNA carrier] | 2 to 8 |  |  |  |  |  |  |  |  |  | 
KFFKFFKFFK-eg1-TAACATTTAA-NH2 [Z46, anti-ftsZ PNA (−4 to +6) conjugated to the (KFF)3K peptide] |  | 2.5 | swollen | reduced | 87 | significantly sensitized | 95 | significantly sensitized | swollen | 7.5 | reduced
